Measurements from patent US11551827B2, “Perfluorinated 1-alkoxypropenes in dielectric fluids and electrical devices” (priority 2017, dated 2023).

Experiment: Gaseous dielectric breakdown voltage measurement (Hipotronics OC60D-A dielectric strength tester)
Type: physicochemical
Details: for Dielectric breakdown voltage: gas, 0.1 inch (2.5 mm) gap, copper electrodes; for Performance as electrical insulator and interrupter (in words): judged from the dielectric breakdown voltage values in Tables 2 and 3
Description: The gaseous dielectric breakdown voltages of PE-1, PE-2, CE-1, CE-2, and CE-3 were measured experimentally using a Hipotronics OC60D-A dielectric strength tester (available from Hipotronics, Brewster, N.Y., USA), which was modified to allow measurements on low pressure gases. The electrode configuration consisted of two copper electrodes separated by a 0.1 inch (2.5 mm) gap housed in a gas tight PFTE (polytetrafluoroethylene) test chamber. The test chamber was first evacuated and then PE-1, PE-2, CE-1, CE-2, or CE-3 was charged to full vapor pressure and evacuated to the measured pressures indicated in Tables 2 and 3. The dielectric breakdown voltage (measured in kV) was measured after each evacuation to determine the dielectric strength and the results are summarized in Tables 2 and 3.

SMILES | Dielectric breakdown voltage (pressure 13.9 kPa) [kV] | Dielectric breakdown voltage (pressure 27.6 kPa) [kV] | Dielectric breakdown voltage (pressure 41.4 kPa) [kV] | Dielectric breakdown voltage (pressure 55.2 kPa) [kV] | Dielectric breakdown voltage (pressure 69.0 kPa) [kV] | Dielectric breakdown voltage (pressure 82.8 kPa) [kV] | Dielectric breakdown voltage (pressure 110 kPa) [kV] | Dielectric breakdown voltage (pressure 124 kPa) [kV] | Dielectric breakdown voltage (pressure 139 kPa) [kV] | Dielectric breakdown voltage (pressure 20 kPa) [kV] | Dielectric breakdown voltage (pressure 40 kPa) [kV] | Dielectric breakdown voltage (pressure 60 kPa) [kV] | Performance as electrical insulator and interrupter (in words) | Dielectric breakdown voltage (pressure 80 kPa) [kV] | Dielectric breakdown voltage (pressure 100 kPa) [kV] | Dielectric breakdown voltage (pressure 120 kPa) [kV] | Dielectric breakdown voltage (pressure 140 kPa) [kV]
FC1(F)C(F)(F)C1(F)F [CE-3, Perfluorocyclopropane] | 4.6 | 6.4 | 8.0 | 9.5 | 10.6 | 12.0 | 14.7 | 16.0 | 17.1 |  |  |  |  |  |  |  | 
FC(OC(F)(F)C(F)(F)F)=C(F)C(F)(F)F [PE-1, 1,2,3,3,3-Pentafluoro-1-(Perfluoroethoxy)Prop-1-Ene] |  |  |  |  |  |  |  |  |  | 8.7 | 13.5 | 18.7 | excellent electrical insulators and interrupters |  |  |  | 
FC(F)=C(F)C(F)(F)F [CE-1, Hexafluoropropene] |  |  |  |  |  |  |  |  |  | 8.8 | 9.8 | 11.5 |  | 13.9 | 16.3 | 18.4 | 20.1
FS(F)(F)(F)(F)F [CE-2, Sulfur hexafluoride] | 4.6 | 5.4 | 7.8 | 9.5 | 10.9 | 12.5 | 15.3 | 16.7 | 18.0 |  |  |  |  |  |  |  | 
FC(OC(F)(F)F)=C(F)C(F)(F)F [PE-2, 1,2,3,3,3-Pentafluoro-1-(Perfluoromethoxy)Prop-1-Ene] |  |  |  |  |  |  |  |  |  | 8.8 | 10.9 | 15.6 | excellent electrical insulators and interrupters | 19.5 | 22.7 | 25.7 | 28.9
